Reference: US20260374754A1, “N-((ISOQUINOLIN-6-YL)METHYL)-1H-PYRAZOLE-4-CARBOXAMIDE DERIVATIVES AS PLASMA KALLIKREIN INHIBITORS FOR THE TREATMENT OF HEREDITARY ANGIODEMA” (Takeda Pharmaceutical Company Limited, priority 2022, published 2026)
Structures can show the parent of a compound that is named as a salt.

What follows are compounds tested against human activated kallikrein enzyme (Homo sapiens, UniProt P03952) (assay: Inhibition of human activated plasma kallikrein, fluorogenic PFR-AMC substrate, 500 pM enzyme format). Conditions: 500 pM activated kallikrein; 300 μM PFR-AMC; 30 min preincubation; 10 min room temperature; pH 7.5; read-out: Primary Dose Response Assay: Average EC50.
Chain of human activated kallikrein enzyme (P03952 391-638 limits assumed): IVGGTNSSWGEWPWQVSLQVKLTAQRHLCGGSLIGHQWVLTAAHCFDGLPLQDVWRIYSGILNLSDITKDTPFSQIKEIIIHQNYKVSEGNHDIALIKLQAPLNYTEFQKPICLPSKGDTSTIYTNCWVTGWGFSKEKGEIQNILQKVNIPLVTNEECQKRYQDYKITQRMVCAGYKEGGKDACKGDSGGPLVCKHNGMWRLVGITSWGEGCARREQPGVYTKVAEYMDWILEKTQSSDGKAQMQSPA
Chain of human activated kallikrein enzyme (P03952 20-390 partner limits assumed): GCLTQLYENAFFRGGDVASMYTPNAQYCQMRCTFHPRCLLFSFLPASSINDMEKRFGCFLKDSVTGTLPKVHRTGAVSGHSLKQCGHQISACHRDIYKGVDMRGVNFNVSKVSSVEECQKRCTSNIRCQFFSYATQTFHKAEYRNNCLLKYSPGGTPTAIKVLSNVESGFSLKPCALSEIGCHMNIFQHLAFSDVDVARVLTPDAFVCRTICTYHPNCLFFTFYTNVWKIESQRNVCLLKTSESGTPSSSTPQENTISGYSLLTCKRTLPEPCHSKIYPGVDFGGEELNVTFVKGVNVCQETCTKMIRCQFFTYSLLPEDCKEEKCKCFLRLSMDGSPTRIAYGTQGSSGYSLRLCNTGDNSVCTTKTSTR
Assay type: biochemical
Procedure: Compounds were evaluated for inhibition of the human activated kallikrein enzyme in two formats of an assay employing a fluorogenic peptide substrate. In one assay format, the concentrations of reagents were as follows: 20 mM Tris pH 7.5, 1 mM EDTA, 150 mM sodium chloride, 0.1% PEG-400, 0.1% Triton X-100, 500 pM activated kallikrein enzyme, 300 μM Pro-Phe-Arg-7-amido-4-methylcoumarin (PFR-AMC) substrate. Prior to reaction initiation with substrate, enzyme and inhibitors were preincubated for 30 min at room temperature. After initiation with substrate, reactions were incubated for 10 min at room temperature and fluorescence emission at 460 nm from 380 nm excitation measured with a microplate reader. In another assay format, the concentrations of reagents were as follows: 20 mM Tris pH 7.5, 1 mM EDTA, 150 mM sodium chloride, 0.1% PEG-400, 0.1% Triton X-100, 5 pM activated kallikrein enzyme, 300 uM PFR-AMC substrate. Prior to reaction initiation with substrate, enzyme and inhibitors were preincubated for 30 min at room temperature. After initiation with substrate, reactions were incubated for 18 hr at room temperature and fluorescence emission at 460 nm from 380 nm excitation measured with a microplate reader.
Table 35 provides the results of the assay in the format with 500 pM activated kallikrein assay.
Work on `Cc1cc2c(N)nccc2c(C)c1CNC(=O)c1cnn(C(CN)c2ccccc2)c1` (centres unmarked) [Example 180, 1-(2-amino-1-phenylethyl)-N-((1-amino-5,7-dimethylisoquinolin-6-yl)methyl)-1H-pyrazole-4-carboxamide] yielded an EC50 of 0.1 to 1 µM.
For `Cc1cc2c(N)nccc2c(C)c1CNc1cc(OCc2nc3ccc(C4CC4)cn3n2)nc(CCC(=O)O)n1` [Example 295, 3-(4-(((1-amino-5,7-dimethylisoquinolin-6-yl)methyl)amino)-6-((6-cyclopropyl-[1,2,4]triazolo[1,5-a]pyridin-2-yl)methoxy)pyrimidin-2-yl)propanoic acid], the EC50 was 0.001 to 0.01 µM.
`Cc1cc2c(N)nccc2c(C)c1CNC(=O)c1cnn(Cc2cccc(C#N)c2)c1` [Example 94, N-((1-amino-5,7-dimethylisoquinolin-6-yl)methyl)-1-(3-cyanobenzyl)-1H-pyrazole-4-carboxamide] was tested, and the EC50 was 0.01 to 0.1 µM.
Work on `Cc1cc2c(N)nccc2c(C)c1CN1C(=O)c2ncc(NCc3cn4cc(C5CC5)ccc4n3)cc21` [Example 496, 7-((1-amino-5,7-dimethylisoquinolin-6-yl)methyl)-4-(((6-cyclopropylimidazo[1,2-a]pyridin-2-yl)methyl)amino)-2,7-diazabicyclo[4.2.0]octa-1,3,5-trien-8-one] yielded an EC50 of 0.1 to 1 µM.
For `CCOC(=O)N(Cc1ccc(Cn2ccccc2=O)cc1)c1cc(NCc2c(C)cc3c(N)nccc3c2C)ncn1` [Example I-480, ethyl (6-(((1-amino-5,7-dimethylisoquinolin-6-yl)methyl)amino)pyrimidin-4-yl)(4-((2-oxopyridin-1(2H)-yl)methyl)benzyl)carbamate], the EC50 was 0.1 to 1 µM.
`Cc1cc2c(N)nccc2c(C)c1CNc1cc(NCc2ccc(OCC(=O)N3CCC3)cc2)ncn1` [Example 347, 2-(4-(((6-(((1-amino-5,7-dimethylisoquinolin-6-yl)methyl)amino)pyrimidin-4-yl)amino)methyl)phenoxy)-1-(azetidin-1-yl)ethan-1-one, formic acid salt] was tested, and the EC50 was less than 0.001 µM.
Compound `Cc1cc2c(N)nccc2c(C)c1CNc1cc(NCc2ccc(Cn3cccn3)cc2F)cnn1` [Example 385, N^5-(4-((1H-pyrazol-1-yl)methyl)-2-fluorobenzyl)-N^3-((1-amino-5,7-dimethylisoquinolin-6-yl)methyl)pyridazine-3,5-diamine] has an EC50 of less than 0.001 µM.
In the case of `Cc1cc2c(N)nccc2c(C)c1CNC(=O)c1cnn(Cc2ccc3cnn(C)c3c2)c1` [Example 59, N-((1-amino-5,7-dimethylisoquinolin-6-yl)methyl)-1-((1-methyl-1H-indazol-6-yl)methyl)-1H-pyrazole-4-carboxamide], the EC50 is reported as 0.001 to 0.01 µM.
In the case of `CCOC(=O)Cc1ccc(Cn2cc(C(=O)NCc3c(C)cc4c(N)nccc4c3C)cn2)cc1` [Example 55, ethyl 2-(4-((4-(((1-amino-5,7-dimethylisoquinolin-6-yl)methyl)carbamoyl)-1H-pyrazol-1-yl)methyl)phenyl)acetate], the EC50 is reported as 0.001 to 0.01 µM.
For `Cc1cc2c(N)nccc2c(C)c1CNC(=O)c1cnn(Cc2cn3c(C)c(C4CC4)ccc3n2)c1` [Example 104, N-((1-amino-5,7-dimethylisoquinolin-6-yl)methyl)-1-((6-cyclopropyl-5-methylimidazo[1,2-a]pyridin-2-yl)methyl)-1H-pyrazole-4-carboxamide], the EC50 was less than 0.001 µM.
For `Cc1cc2c(N)nccc2c(C)c1CNC(=O)c1cnn(Cc2cc3cc(Cl)ccc3s2)c1` [Example 65, N-((1-amino-5,7-dimethylisoquinolin-6-yl)methyl)-1-((5-chlorobenzo[b]thiophen-2-yl)methyl)-1H-pyrazole-4-carboxamide], the EC50 was less than 0.001 µM.
`CC(=O)NC1(c2ccc(Cn3cc(C(=O)NCc4c(C)cc5c(N)nccc5c4C)cn3)cc2)CC1` [Example 19, 1-(4-(1-acetamidocyclopropyl)benzyl)-N-((1-amino-5,7-dimethylisoquinolin-6-yl)methyl)-1H-pyrazole-4-carboxamide] was tested, and the EC50 was less than 0.001 µM.
`Cc1cc2c(N)nccc2c(C)c1CNC(=O)c1cnn(Cc2ccc(CC(=O)N3C[C@@H]4[C@@H](CO)[C@@H]4C3)cc2)c1` [Example 208, N-((1-amino-5,7-dimethylisoquinolin-6-yl)methyl)-1-(4-(2-((1R,5S,6r)-6-(hydroxymethyl)-3-azabicyclo[3.1.0]hexan-3-y1)-2-oxoethyl)benzyl)-1H-pyrazole-4-carboxamide] showed an EC50 of 0.01 to 0.1 µM.
Work on `Cc1cc2c(N)nccc2c(C)c1CNC(=O)c1cnn(Cc2nc3ccccc3n2C)c1` [Example 75, N-((1-amino-5,7-dimethylisoquinolin-6-yl)methyl)-1-((1-methyl-1H-benzo[d]imidazol-2-yl)methyl)-1H-pyrazole-4-carboxamide] yielded an EC50 of 0.1 to 1 µM.
Compound `C/C=C(/c1ccc(CNc2cc(NCc3c(C)cc4c(N)nccc4c3C)ncn2)cc1)n1cccn1` [Example I-483, (Z)—N^4-(4-(1-(1H-pyrazol-1-yl)prop-1-en-1-yl)benzyl)-N^6-((1-amino-5,7-dimethylisoquinolin-6-yl)methyl)pyrimidine-4,6-diamine] has an EC50 of less than 0.001 µM.
Compound `CCOC(=O)[C@@H]1[C@@H]2CN(C(=O)Cc3ccc(Cn4cc(C(=O)NCc5c(C)cc6c(N)nccc6c5C)cn4)cc3)C[C@@H]21` [Example 211, ethyl (1R,5S,6s)-3-(2-(4-((4-(((1-amino-5,7-dimethylisoquinolin-6-y1)methyl)carbamoyl)-1H-pyrazol-1-yl)methyl)phenyl)acetyl)-3-azabicyclo[3.1.0]hexane-6-carboxylate] has an EC50 of less than 0.001 µM.
`Cc1cc2c(N)nccc2c(C)c1CNc1nccnc1OCc1cn2cc(C3CC3)ccc2n1` [Example 287, 6-(((3-((6-cyclopropylimidazo[1,2-a]pyridin-2-yl)methoxy)pyrazin-2-yl)amino)methyl)-5,7-dimethylisoquinolin-1-amine] gave an EC50 of 0.01 to 0.1 µM.
In the case of `Cc1cc2c(N)nccc2c(C)c1CNc1cc(OCc2ccc3nc(C)c(C)nc3c2)cnn1` [Example 418, 6-(((5-((2,3-dimethylquinoxalin-6-yl)methoxy)pyridazin-3-yl)amino)methyl)-5,7-dimethylisoquinolin-1-amine, formic acid salt], the EC50 is reported as less than 0.001 µM.
`Cc1cc2c(N)nccc2c(C)c1CNC(=O)c1cnn(Cc2ncccn2)c1` [Example 83, N-((1-amino-5,7-dimethylisoquinolin-6-yl)methyl)-1-(pyrimidin-2-ylmethyl)-1H-pyrazole-4-carboxamide] showed an EC50 of 0.1 to 1 µM.
`Cc1cc2c(N)nccc2c(C)c1CNc1cc(NCc2ccc3ncccc3c2)ncn1` [Example 337, N^4-((1-amino-5,7-dimethylisoquinolin-6-yl)methyl)-N^6-(quinolin-6-ylmethyl)pyrimidine-4,6-diamine] gave an EC50 of 0.001 to 0.01 µM.
`Cc1cc2c(N)nccc2c(C)c1CNc1ncccc1OCc1cn2cc(C3CC3)ccc2n1` [Example 289, 6-(((3-((6-cyclopropylimidazo[1,2-a]pyridin-2-yl)methoxy)pyridin-2-yl)amino)methyl)-5,7-dimethylisoquinolin-1-amine] showed an EC50 of 0.1 to 1 µM.
Compound `Cc1ccc2cc(COc3cnnc(NCc4c(C)cc5c(N)nccc5c4C)c3)ccc2n1` [Example 412, 5,7-dimethyl-6-(((5-((2-methylquinolin-6-yl)methoxy)pyridazin-3-yl)amino)methyl)isoquinolin-1-amine] has an EC50 of less than 0.001 µM.

Same assay, conditions: Primary Dose Response Assay: Average EC50, 500 pM activated kallikrein; 300 μM PFR-AMC; 30 min preincubation; 10 min room temperature; pH 7.5
`Cc1cc(CNc2cc(NCc3c(C)cc4c(N)nccc4c3C)ncn2)cc(C)c1CC(=O)N1CC2CC2C1` (centres unmarked) [Example 359, 2-(4-(((6-(((1-amino-5,7-dimethylisoquinolin-6-yl)methyl)amino)pyrimidin-4-yl)amino)methyl)-2,6-dimethylphenyl)-1-(3-azabicyclo[3.1.0]hexan-3-yl)ethan-1-one] gave an EC50 of less than 0.001 µM.
